This note sets out measurements from patent publication US11174303B2, “Single-chain insulin analogues stabilized by a fourth disulfide bridge” (Case Western Reserve University, priority 2017, dated 2021).

Series [1] concerns Sprague-Dawley rats made diabetic with streptozotocin. Kind of series: Stability under extreme conditions (95° C. for 30 min, gentle agitation), read out as glucose lowering after IV bolus in diabetic rats. It is filed as in vivo, rat.
Experimental: Heat stressed insulin was given gentle agitation at 95° C. for 30 min. Doses for SCIs (nominally 1 IU/rat IV) were calculated in equivalent nanomoles protein/μl.
FIG. 3C is a graph of mean blood-glucose concentrations over time in Sprague-Dawley rats made diabetic with streptozotocin after IV bolus injection of fresh or heat-stressed SCIs on gentle agitation at 95° C. for 30 min (N=4; mean glycemia ca. 400 mg/dl). Symbol code: (filled triangle, ▴) fresh SCI-1; (open triangle, ? ) heated SCI-1; (filled square, ? ) fresh insulin lispro as positive control and (filled circle, ? ) Lilly diluent (i.e., buffer only) as negative control. Doses for SCIs (nominally 1 IU/rat IV) were calculated in equivalent nanomoles protein/μl.
FIG. 3D is a graph of the change in blood-glucose concentrations normalized to initial blood glucose concentration over time in Sprague-Dawley rats made diabetic with streptozotocin after IV bolus injection of fresh or heat-stressed SCIs on gentle agitation at 95° C. for 30 min (N=4; mean glycemia ca. 400 mg/dl). Symbol code: (filled triangle, ▴) fresh SCI-1; (open triangle, ? ) heated SCI-1; (filled square, ? ) fresh insulin lispro as positive control; and (filled circle, ? ) Lilly diluent (i.e., buffer only) as negative control. Doses for SCIs (nominally 1 IU/rat IV) were calculated in equivalent nanomoles protein/μl.
To evaluate the biological activity, potency, duration of signaling, and thermal stability of the analogues in an animal model, male Sprague-Dawley rats (mean body mass ˜300 grams) were rendered diabetic by treatment with streptozotocin (STZ). […] A control was provided by injection of protein-free Lilly diluent (obtained from Eli Lilly and Co.) composed of 16 mg glycerin, 1.6 mg meta-cresol, 0.65 mg phenol, and 3.8 mg sodium phosphate pH 7.4. The activity of SCI-1 was evaluated in relation to that of Humalog® (U-100 strength taken from an unexpired commercial vial). […] Blood was obtained from the clipped tip of the tail at time 0 and every 10 minutes up to 360 min. […]
The conditions of series [2]: in vivo.
For series [3], the target named is A isoform of the insulin receptor (Homo sapiens, UniProt P06213). It is filed as binding. On the procedure: The receptor binding affinity of analogue 81-04 and analogue 4SS 81-04 was also determined. The affinity of 4SS 81-04 for the A isoform of the insulin receptor was determined to be 120±20 percent relative to human insulin (and may in fact be the same as wild type human insulin given the error present; data not shown). […] Such impaired binding to IGF-1R is desirable from the perspective of potential carcinogenesis on long-term use.
Sequence of A isoform of the insulin receptor (P06213 28-746 isoform P06213-2 limits assumed): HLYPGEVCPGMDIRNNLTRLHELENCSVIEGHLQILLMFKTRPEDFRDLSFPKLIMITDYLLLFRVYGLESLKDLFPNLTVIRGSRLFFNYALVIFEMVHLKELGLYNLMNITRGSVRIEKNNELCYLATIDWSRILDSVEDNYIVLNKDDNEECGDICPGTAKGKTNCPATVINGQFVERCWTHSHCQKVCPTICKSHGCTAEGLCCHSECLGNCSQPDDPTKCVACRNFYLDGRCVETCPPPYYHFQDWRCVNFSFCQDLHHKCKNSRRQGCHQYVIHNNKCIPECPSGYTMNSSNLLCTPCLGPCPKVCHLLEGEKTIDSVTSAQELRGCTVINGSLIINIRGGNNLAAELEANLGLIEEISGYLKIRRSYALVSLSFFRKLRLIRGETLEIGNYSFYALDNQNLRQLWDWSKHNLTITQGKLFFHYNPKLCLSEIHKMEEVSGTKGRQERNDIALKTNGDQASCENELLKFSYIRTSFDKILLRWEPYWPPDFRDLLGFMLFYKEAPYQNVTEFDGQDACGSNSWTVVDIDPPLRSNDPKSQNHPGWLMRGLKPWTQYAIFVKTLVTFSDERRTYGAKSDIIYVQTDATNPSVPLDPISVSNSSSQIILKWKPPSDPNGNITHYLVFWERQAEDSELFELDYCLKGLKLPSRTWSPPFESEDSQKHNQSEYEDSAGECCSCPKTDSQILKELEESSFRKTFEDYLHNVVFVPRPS
Sequence of A isoform of the insulin receptor (P06213 763-1382 partner limits assumed): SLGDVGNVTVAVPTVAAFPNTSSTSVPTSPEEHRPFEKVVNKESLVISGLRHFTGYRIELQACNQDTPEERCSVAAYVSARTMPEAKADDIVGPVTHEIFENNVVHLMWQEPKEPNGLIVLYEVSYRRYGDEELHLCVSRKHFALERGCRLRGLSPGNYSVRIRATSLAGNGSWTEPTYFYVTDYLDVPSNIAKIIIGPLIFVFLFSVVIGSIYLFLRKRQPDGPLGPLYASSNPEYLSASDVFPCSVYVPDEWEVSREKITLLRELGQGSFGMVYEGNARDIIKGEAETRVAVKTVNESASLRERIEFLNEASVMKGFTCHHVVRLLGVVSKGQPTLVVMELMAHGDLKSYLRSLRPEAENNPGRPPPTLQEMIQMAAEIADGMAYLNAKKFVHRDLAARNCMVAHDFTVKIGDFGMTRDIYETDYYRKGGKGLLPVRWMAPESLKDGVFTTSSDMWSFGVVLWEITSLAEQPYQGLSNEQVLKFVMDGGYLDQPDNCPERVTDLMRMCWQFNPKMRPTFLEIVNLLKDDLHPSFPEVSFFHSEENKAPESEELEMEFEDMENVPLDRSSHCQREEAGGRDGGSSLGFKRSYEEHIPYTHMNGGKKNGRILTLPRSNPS

Positions of bridges follow the written chain, without caps; N, C: chain ends. No end group written: not given here.

Regarding “SCI-1 without 4SS: Preliminary version of SCI-1 lacking the 4th disulfide bridge, with Gln at position B4 and Ile at position A10 (FVNQHLCGSHLVEALYLVCGERGFFYTDPTEEGPRRGIVEQCCHSICSLEQLENYCN; disulfide (positions not given here); ends not checked)”, in series [1] (95° C. for 30 min, time point 240 min), the “decrement in activity of heated versus fresh sample at 240 min” value is reported as “ca. 25%”. For the same substance, in series [1] (95° C. for 30 min, time point 300 min), the “decrement in activity of heated versus fresh sample at 300 min” value is about 40%. Moreover, the “activity after 30 min at 95° C. versus fresh sample” value in series [1] (heat-stressed with gentle agitation at 95° C. for 30 min, nominally 1 IU/rat, N=4) is reported as “largely (but incompletely) maintained”.
For “FVNCHLCGSHLVEALYLVCGERGFFYTPRTEEGSRRSRGIVEQCCRSCCSLYQLENYCN (disulfide 4-48, 7-45, 19-58, 44-49) [SCI-1]”, the “PK on conventional SQ injection” value in series [2] is “prolonged PK”.
Consider “FVNCHLCGSHLVEALYLVCGERGFFYTDPTEEGPRRGIVEQCCHSCCSLEQLENYCN (disulfide 4-46, 7-43, 19-56, 42-47) [SCI-2]”, for which the “affinity for the A isoform of the insulin receptor relative to human insulin” value in series [3] is 120±20%.
